Laboratory results as given in EP4603105A1, “PHARMACEUTICAL COMPOSITION CONTAINING CYCLIC COMPOUND HAVING SELECTIVE KRAS INHIBITORY EFFECT AGAINST HRAS AND NRAS” (CHUGAI SEIYAKU KABUSHIKI KAISHA, priority 2022, dated 2024).
Where a SMILES comes first, the peptide text is derived from it. Bridges are numbered along the chain shown (N, C = ends). [ ]: non-standard residue; d: D form. The star is where a group is joined. hPhe(3-Cl-4-CF3) = N[C@@H](CCc1ccc(C(F)(F)F)c(Cl)c1)C(=O)O; NPrPhe(4-CF3) = CCCN[C@@H](Cc1ccc(C(F)(F)F)cc1)C(=O)O; NMeGly(cPent) = CN[C@H](C(=O)O)C1CCCC1; Pro(4,4-F2) = O=C(O)[C@@H]1CC(F)(F)CN1; NMeD = CN[C@@H](CC(=O)O)C(=O)O; Ac4c(3-oxa) = NC1(C(=O)O)COC1; NMeL = CN[C@@H](CC(C)C)C(=O)O; Morpholide = C1CN(*)CCO1; NMeA = CN[C@@H](C)C(=O)O; Ac5c = NC1(C(=O)O)CCCC1; Aze = O=C(O)[C@@H]1CCN1; X11 = CC1(C)CCN(*)C1; NEtG = CCNCC(=O)O; Sar = CNCC(=O)O

Tests used:
[1] = target: GDP-bound NRAS wild-type protein (Homo sapiens, UniProt P01111); experiment: Binding to NRAS by surface plasmon resonance (SPR), KD and KD ratio to KRAS
GDP-bound NRAS wild-type protein, sequence (P01111 whole entry): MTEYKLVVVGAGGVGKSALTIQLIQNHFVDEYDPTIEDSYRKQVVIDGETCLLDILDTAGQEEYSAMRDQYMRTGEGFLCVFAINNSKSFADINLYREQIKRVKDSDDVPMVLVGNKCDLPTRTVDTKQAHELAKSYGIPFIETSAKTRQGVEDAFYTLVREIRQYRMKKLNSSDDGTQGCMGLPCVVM
Outline: (§1)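 GDP-bound biotin-Avi RAS captured at ~100–300 RU, 30°C, pH 7.4 HBS containing 10 µM GDP, 10 mM MgCl2, 1 mM DTT, 0.01% Tween 20 and 4% DMSO. KD by 1:1 fitting.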

[2] = target: HRAS wild-type protein (Homo sapiens, UniProt P01112); experiment: Binding to HRAS by surface plasmon resonance (SPR), KD and KD ratio to KRAS
HRAS wild-type protein, sequence (P01112 whole entry): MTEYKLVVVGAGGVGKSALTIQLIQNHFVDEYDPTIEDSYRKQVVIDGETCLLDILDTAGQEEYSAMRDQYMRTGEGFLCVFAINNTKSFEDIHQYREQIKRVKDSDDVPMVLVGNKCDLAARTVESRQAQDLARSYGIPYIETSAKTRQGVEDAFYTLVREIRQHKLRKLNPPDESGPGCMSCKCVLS
Outline: as §1

[3] = test system: human lung cancer strain NCI-H441; type: cell-based
Outline: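 Readout: […] after the ATP-based reagent. Compound: serial dilutions in dimethyl sulfoxide.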

[4] = ratio of the KD value with respect to GDP-bound NRAS wild-type protein to the KD value with respect to KRAS
[5] = ratio of the KD value with respect to HRAS wild-type protein to the KD value with respect to KRAS
[6] = ratio of KD for GDP-bound NRAS wild-type protein to KD for KRAS
[7] = ratio of KD for HRAS wild-type protein to KD for KRAS

SMILES	IC50 [3] [nM]	NRAS /KRAS ([1]; ratio of KD value for GDP-bound NRAS wild-type protein to KD value for KRAS (SPR))	HRAS /KRAS ([2]; ratio of KD value for HRAS wild-type protein to KD value for KRAS (SPR))	NRAS /KRAS [1, 4]	HRAS /KRAS [2, 5]	NRAS /KRAS [1, 6]	HRAS /KRAS [2, 7]
CCCN1C(=O)[C@@H]2CCN2C(=O)[C@H](C)N(C)C(=O)[C@H]([C@@H](C)CC)NC(=O)[C@H](CC(C)C)N(C)C(=O)C[C@@H](C(=O)N2CCC(C)(C)C2)N(C)C(=O)[C@H](C2CCCC2)N(C)C(=O)C2(CCCC2)NC(=O)[C@@H]2CCCN2C(=O)[C@H](CCc2ccc(C(F)(F)F)c(Cl)c2)NC(=O)CN(C)C(=O)[C@@H]1Cc1ccc(C(F)(F)F)cc1 [PP0186] ([NMeL]I[NMeA][Aze][NPrPhe(4-CF3)][Sar][hPhe(3-Cl-4-CF3)]P[Ac5c][NMeGly(cPent)][NMeD]-X11; lactam N-11)	20.5	–	–	–	–	C (A compound having a KD ratio of 0.1 or more and less than 3 is denoted as C)	B (a compound having 3 or more and less than 10 is denoted as B)
CC[C@H](C)[C@@H]1NC(=O)[C@H](CC(C)C)N(C)C(=O)C[C@@H](C(=O)N2CCOCC2)N(C)C(=O)[C@H](C2CCCC2)N(C)C(=O)C2(CCCC2)NC(=O)[C@@H]2CCCN2C(=O)[C@H](CCc2ccc(C(F)(F)F)c(Cl)c2)NC(=O)CN(C)C(=O)[C@H](Cc2ccc(C)cc2)N2CC/C=C\C[C@@H](C2=O)N(C)C(=O)CN(C)C1=O [PP0461]	23.2	–	–	A (a compound having 10 or more and less than 20 is denoted as A)	A (a compound having 10 or more and less than 20 is denoted as A)	–	–
CCCN1C(=O)CN(C)C(=O)CN(CC)C(=O)[C@H]([C@@H](C)CC)NC(=O)[C@H](CC(C)C)N(C)C(=O)C[C@@H](C(=O)N2CCOCC2)NC(=O)[C@H](C2CCCC2)N(C)C(=O)C2(CCCC2)NC(=O)[C@@H]2CC(F)(F)CN2C(=O)[C@H](CCc2ccc(C(F)(F)F)c(Cl)c2)NC(=O)CN(C)C(=O)[C@@H]1Cc1ccc(C(F)(F)F)cc1 [PP0333] ([NMeL]I[NEtG][Sar][NPrPhe(4-CF3)][Sar][hPhe(3-Cl-4-CF3)][Pro(4,4-F2)][Ac5c][NMeGly(cPent)]D-Morpholide; lactam N-11)	41.6	–	–	–	–	B (a compound having 3 or more and less than 10 is denoted as B)	C (A compound having a KD ratio of 0.1 or more and less than 3 is denoted as C)

Continued, in another order:

IC50 [3] [nM]	SMILES	NRAS /KRAS ([1]; ratio of KD value for GDP-bound NRAS wild-type protein to KD value for KRAS (SPR))	HRAS /KRAS ([2]; ratio of KD value for HRAS wild-type protein to KD value for KRAS (SPR))	NRAS /KRAS [1, 4]	HRAS /KRAS [2, 5]	NRAS /KRAS [1, 6]	HRAS /KRAS [2, 7]
12.5	CCC[C@H]1C(=O)N[C@@H]([C@@H](C)CC)C(=O)N(C)CC(=O)N(C)[C@H]2C/C=C\CCN(C2=O)[C@@H](Cc2ccc(C)cc2)C(=O)N(C)CC(=O)N[C@@H](CCc2ccc(C(F)(F)F)c(OC)c2)C(=O)N2C[C@@H](C)C[C@H]2C(=O)NC2(CC(C)(C)C2)C(=O)N(C)[C@@H](C2CCCC2)C(=O)N(C)[C@H](C(=O)N(C)CC)CC(=O)N1C [PP1889]	A (a compound having 10 or more and less than 20 is denoted as A)	B (a compound having 3 or more and less than 10 is denoted as B)	–	–	–	–
5.1	CCO[C@@H]1C[C@H]2C(=O)NC3(CCC3)C(=O)N(C)[C@@H](C3CCCC3)C(=O)N(C)[C@H](C(=O)N3CCOCC3)CC(=O)N(C)[C@@H](CC(C)(C)C)C(=O)N[C@@H]([C@@H](C)CC)C(=O)N(C)CC(=O)N(C)[C@H]3CCCCN(C3=O)[C@@H](Cc3ccc(C(F)(F)F)cc3)C(=O)N(C)CC(=O)N[C@@H](CCc3cc(F)c(C(F)(F)F)c(F)c3)C(=O)N2C1 [PP0714]	–	–	C (A compound having a KD ratio of 0.1 or more and less than 3 is denoted as C)	B (a compound having 3 or more and less than 10 is denoted as B)	–	–
44.1	CCCN1C(=O)CN(C)C(=O)CN(C)C(=O)[C@H]([C@@H](C)CC)NC(=O)[C@H](CC(C)C)N(C)C(=O)C[C@@H](C(=O)N2CCOCC2)N(C)C(=O)[C@H](C2CCCC2)N(C)C(=O)C2(COC2)NC(=O)[C@@H]2CCCN2C(=O)[C@H](CCc2ccc(C(F)(F)F)c(Cl)c2)NC(=O)CN(C)C(=O)[C@@H]1Cc1ccc(C(F)(F)F)cc1 [PP1922] ([NMeL]I[Sar][Sar][NPrPhe(4-CF3)][Sar][hPhe(3-Cl-4-CF3)]P[Ac4c(3-oxa)][NMeGly(cPent)][NMeD]-Morpholide; lactam N-11)	–	–	B (a compound having 3 or more and less than 10 is denoted as B)	C (A compound having a KD ratio of 0.1 or more and less than 3 is denoted as C)	–	–
15.7	CCO[C@@H]1C[C@H]2C(=O)NC3(CCC3)C(=O)N(C)[C@@H](C3CCCC3)C(=O)N(C)[C@H](C(=O)N(C)C)CC(=O)N(C)[C@@H](CC)C(=O)N[C@@H]([C@@H](C)CC)C(=O)N(C)CC(=O)N(C)[C@H]3CC=C(C)CN(C3=O)[C@@H](Cc3ccc(C(F)(F)F)cc3)C(=O)N(C)CC(=O)N[C@@H](CCc3cc(F)c(C(F)(F)F)c(F)c3)C(=O)N2C1 [PP0827]	–	–	–	–	C (A compound having a KD ratio of 0.1 or more and less than 3 is denoted as C)	C (A compound having a KD ratio of 0.1 or more and less than 3 is denoted as C)
